Measured values: patent publication US7300784B2 (priority 2001, dated 2007)
“And” between values parts separate entries of the source, which are not always exact repeats. Equal values may be shown once. Read-outs that look alike come from different tables or passages of the source.

What was measured:
[1] = tested on: nitrile hydratase of Rhodococcus sp. Cr4; format: biochemical
[2] = tested on: Rhodococcus rhodochrous ATCC 332878; format: cell-based
Rhodococcus sp. Cr4 = format: cell-based

nitrile hydratase of Rhodococcus sp. Cr4, sequence (as listed by the source): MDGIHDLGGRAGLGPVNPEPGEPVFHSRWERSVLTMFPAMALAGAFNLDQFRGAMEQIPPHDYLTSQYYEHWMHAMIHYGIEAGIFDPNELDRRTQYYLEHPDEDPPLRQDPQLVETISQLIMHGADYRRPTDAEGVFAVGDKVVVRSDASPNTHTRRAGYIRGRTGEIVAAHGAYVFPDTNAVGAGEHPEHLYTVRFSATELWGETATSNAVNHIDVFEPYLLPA
nitrile hydratase of Rhodococcus sp. Cr4, sequence (as listed by the source): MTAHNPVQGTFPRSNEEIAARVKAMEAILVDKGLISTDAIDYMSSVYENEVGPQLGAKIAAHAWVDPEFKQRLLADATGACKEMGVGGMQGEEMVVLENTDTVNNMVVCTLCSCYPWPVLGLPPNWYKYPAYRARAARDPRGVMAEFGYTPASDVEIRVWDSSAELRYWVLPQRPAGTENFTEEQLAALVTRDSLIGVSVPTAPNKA

Question: How did the “Relative activity (%)” value [1] turn out when CoCl2 was run?
Answer: The value was 154%.

Question: What about the “effect on enzyme activity (words)” value [1] of the same substance?
Answer: Its value is “enhanced”.

Question: And the “enhancement of the enzymatic activity” value [1]?
Answer: Its value is 1.5 times.

Question: What about the “Relative activity (%)” value ([1]; 0 mM = 100) of the same substance?
Answer: The value was 136% and 127% and 129% and 150% and 153% and 143%.

Question: What about the “Relative activity (%)” value [2] of the same substance?
Answer: The value was 123%.

Question: And the “Relative activity (%)” value (Rhodococcus sp. Cr4)?
Answer: Its value is 137%.

Question: And the “effect on nitrile hydratase activity in resting cell reaction” value (Rhodococcus sp. Cr4)?
Answer: The value was “enhanced”.
